Measurements from patent US20250114486A1, “MARKED FATTY ACID DERIVATIVE, PRECURSOR COMPOUND THEREOF, AND USE THEREOF IN CONTRAST AGENT” (BEIJING NORMAL UNIVERSITY, priority 2022, published 2025).
Several values for one entry are separate records, joined by “and”; a condition that tells them apart may be missing. Equal values may be shown once.

What was measured:
[1] = In vivo biodistribution of radioactive ^99mTc complexes in female SD rats; design: species or system female Sprague-Dawley (SD) rats; conditions: for Biodistribution: Large Intestine / Biodistribution: Small Intestine / Biodistribution: Stomach: unit % ID
Protocol: (§1) Female SD rats (180-220 g, n=3) were fasted for 12 h before the experiment, and the purified radioactive 99mTc complexes 78-81 were prepared into physiological saline (containing 10% ethanol) solutions of about 250-350 μCi/mL. 200 μL of the above solution was injected into the tail vein of female SD rats, and the rats were killed by cervical dislocation at five time points, 15, 30, 60, 120 and 240 min after the tail vein injection. The blood, brain, heart, liver, spleen, lung, kidney, muscle, bone, large intestine, small intestine, stomach and tail were collected, weighed and counted, and the count distribution of each tissue and organ was calculated (unit: % ID/g, the unit of large intestine, small intestine and stomach is % ID), and the data are the mean±standard deviation of three mice in each phase. At the same time, 200 μL of the above solution was diluted to 20 mL, which was used as the % ID without deducting the tail count.

[2] = Metabolism study in female SD rats (modified Folch extraction, ^99mTc gamma counting); format: in vivo
Protocol: Female SD rats (180-220 g, fasted overnight) were injected with […] radioactive ^99mTc complex 80 (200-300 μCi, dissolved in 10% EtOH saline, 1000 μL) (n=3) through the tail vein. Heart, intestine and liver samples were collected at 60 min and 120 min after injection. Among them, the SD rats killed at 60 min post-injection were divided into two groups: one group of fasting female SD rats were injected with saline (0.2 mL) solution containing fatty acid β-oxidation inhibitor TMZ (40 mg/kg) and our radiotracer (TMZ-administratied group), and the other group of fasting female SD rats were injected with radioactive ^99mTc complex 80 only (control group). Heart, intestine or liver samples were homogenized in a mixture of CHCl3—CH3OH in a volume ratio of 2:1, then 40% urea and 5% sulfuric acid aqueous solution were added, and they were sonicated and centrifuged at 2000 rpm for 10 min (a modified Folch extraction method). The ^99mTc gamma counting were performed on the resulting aqueous phase, organic phase and residual tissue particle phase (n=3).
In addition, the residual tissue particles obtained from the heart samples were measured for radioactivity counts, then heated and dissolved in 1 mol/L NaOH solution at 90° C. for 1 h, cooled, and then treated with 50% trichloroacetic acid (TCA). After centrifugation at 2000 rpm for 10 min, the obtained supernatant and precipitate were ^99mTc gamma counting.

[3] = test system: fatty acid β-oxidation; experiment: TMZ (trimetazidine hydrochloride) blocking experiment, biodistribution in female SD rats; format: in vivo
Protocol: as §1
Trimetazidine hydrochloride (TMZ) is a widely used anti-anginal drug and an inhibitor of fatty acid β-oxidation. […] Therefore, in order to investigate the sensitivity of radioactive ^99mTc complex 80 to fatty acid β-oxidation, we first performed a TMZ blocking experiment from the perspective of biodistribution. Among them, SD rats killed 60 min after injection were divided into two groups: one group of fasting female SD rats were injected with saline (0.2 mL) solution containing TMZ (40 mg/kg) and our radiotracer ^99mTc complex 80 (TMZ administration group), and the other group of fasting female SD rats were injected with radioactive ^99mTc complex 80 only (control group). The absolute myocardial uptake of the control SD rats and the TMZ-administered SD rats was compared 60 min after the tail vein injection of our radiotracer 80 (corresponding to the time point of the peak absolute myocardial uptake). […] The effect of TMZ administration on the metabolic fate of the radioactive ^99mTc complex 80 will also be discussed in Example 4 below.

[4] = heart in TMZ-administrated SD rats (TMZ 40 mg/kg), 60 min
[5] = heart in control SD rats, 60 min, percentage of total ^99mTc radioactivity counts
[6] = heart in control SD rats, 120 min
[7] = intestine in control SD rats, 60 min
[8] = intestine in control SD rats, 120 min
[9] = liver in control SD rats, 60 min
[10] = liver in control SD rats, 120 min
[11] = female SD rats, 60 min, blocked by trimetazidine hydrochloride (TMZ 40 mg/kg)
[12] = female SD rats, 60 min, blocked by trimetazidine hydrochloride (TMZ 40 mg/kg), unit % ID

COC(C)(C)C[N+]#[C][99Tc-5]([C]#[N+]CC(C)(C)OC)([C]#[N+]CC(C)(C)OC)([C]#[N+]CC(C)(C)OC)([C]#[N+]CC(C)(C)OC)[C]#[N+]CC(C)(C)OCCCCCSCCCCC(=O)O [^99mTc complex 80]
Biodistribution: Large Intestine ([1]; 120 min post-injection): 22.13 ± 2.94 % ID
Biodistribution: Small Intestine ([1]; 120 min post-injection): 5.02 ± 0.82 % ID
Biodistribution: Stomach ([1]; 120 min post-injection): 0.55 ± 0.08 % ID
Biodistribution: Blood ([1]; 240 min post-injection): 0.007 ± 0.001 ID %/g
Biodistribution: Bone ([1]; 240 min post-injection): 0.043 ± 0.003 ID %/g
Biodistribution: Brain ([1]; 240 min post-injection): 0.007 ± 0.002 ID %/g
Biodistribution: Heart ([1]; 240 min post-injection): 0.93 ± 0.09 ID %/g
Biodistribution: Kidney ([1]; 240 min post-injection): 0.49 ± 0.03 ID %/g
Biodistribution: Liver ([1]; 240 min post-injection): 0.17 ± 0.03 ID %/g
Biodistribution: Lungs ([1]; 240 min post-injection): 0.06 ± 0.01 ID %/g
Biodistribution: Muscle ([1]; 240 min post-injection): 0.22 ± 0.02 ID %/g
Biodistribution: Spleen ([1]; 240 min post-injection): 0.06 ± 0.01 ID %/g
Heart-to-Blood ratio ([1]; 240 min post-injection): 141.90±22.86
Heart-to-Liver ratio ([1]; 240 min post-injection): 5.56±1.30
Heart-to-Lungs ratio ([1]; 240 min post-injection): 15.00±3.18
absolute myocardial uptake value ([1]; 240 min post-injection): 0.93±0.09 % ID/g
Biodistribution: Large Intestine ([1]; 240 min post-injection): 22.41 ± 1.13 % ID
Biodistribution: Small Intestine ([1]; 240 min post-injection): 7.36 ± 0.64 % ID
Biodistribution: Stomach ([1]; 240 min post-injection): 0.20 ± 0.02 % ID
absolute myocardial uptake peak value ([1]; peak at 60 min post-injection): 2.06±0.06 % ID/g
decrease of absolute myocardial uptake value ([1]; within 60-240 min post-injection): 54.9%
reduction of residual tissue granular phase proportion, TMZ-treated vs control heart samples ([2]; 60 min after injection, P<0.01): 61%
precipitated ^99mTc radioactivity count as share of residual tissue granular phase ([2]; control SD rat heart, 60 min, dissolved in 1 mol/L NaOH 90° C. 1 h, 50% trichloroacetic acid added): 86.0%
% aqueous fraction [2, 4]: 0.29 ± 0.06%
% organic fraction [2, 4]: 73.11±2.03%
% residual tissue pellet [2, 4]: 26.60±2.09%
% aqueous fraction [2, 5]: 0.50 ± 0.21%
% organic fraction [2, 5]: 31.38±2.48%
% residual tissue pellet [2, 5]: 68.54±3.66% and 68.12 ± 2.69%
% aqueous fraction [2, 6]: 0.53 ± 0.23%
% organic fraction [2, 6]: 33.20 ± 4.56%
% residual tissue pellet [2, 6]: 66.27±34.54% and 66.27 ± 4.54%
% aqueous fraction [2, 7]: 0.54 ± 0.24%
% organic fraction [2, 7]: 38.76 ± 5.69%
% residual tissue pellet [2, 7]: 60.70±5.71%
% aqueous fraction [2, 8]: 1.68 ± 0.44%
% organic fraction [2, 8]: 32.77 ± 3.98%
% residual tissue pellet [2, 8]: 65.55±3.54%
% aqueous fraction [2, 9]: 0.66 ± 0.21%
% organic fraction [2, 9]: 35.30 ± 4.75%
% residual tissue pellet [2, 9]: 64.04±4.90%
% aqueous fraction [2, 10]: 0.85 ± 0.30%
% organic fraction [2, 10]: 31.92 ± 3.83%
% residual tissue pellet [2, 10]: 67.23 ± 4.08%
decrease of absolute myocardial uptake, TMZ-administered vs control SD rats ([3]; 60 min post-injection, TMZ 40 mg/kg, P<0.01): 51%
sensitivity to myocardial fatty acid β-oxidation ([3]; TMZ blocking, female SD rats): quite sensitive
Biodistribution: Blood [3, 11]: 0.024 ± 0.003 ID %/g
Biodistribution: Bone [3, 11]: 0.07 ± 0.01 ID %/g
Biodistribution: Brain [3, 11]: 0.009 ± 0.005 ID %/g
Biodistribution: Heart [3, 11]: 1.01 ± 0.19 ID %/g
Biodistribution: Kidney [3, 11]: 0.97 ± 0.28 ID %/g
Biodistribution: Liver [3, 11]: 0.51 ± 0.16 ID %/g
Biodistribution: Lungs [3, 11]: 0.16 ± 0.02 ID %/g
Biodistribution: Muscle [3, 11]: 0.31 ± 0.06 ID %/g
Biodistribution: Spleen [3, 11]: 0.10 ± 0.04 ID %/g
Heart-to-Blood ratio [3, 11]: 41.25 ± 3.12
Heart-to-Liver ratio [3, 11]: 2.06 ± 0.41
Heart-to-Lungs ratio [3, 11]: 6.28 ± 0.29
Biodistribution: Large Intestine [3, 12]: 15.54 ± 6.05 % ID
Biodistribution: Small Intestine [3, 12]: 16.59 ± 4.32 % ID
Biodistribution: Stomach [3, 12]: 1.10 ± 0.19 % ID
